What was measured:
COX-2 = target: T1, COX-2 (Homo sapiens, UniProt P35354); assay: COX-2 cell-free assay; settings: read-out: COX-2 (%): % of inhibition of COX-2 levels in vitro
T1 sequence (P35354 18-604): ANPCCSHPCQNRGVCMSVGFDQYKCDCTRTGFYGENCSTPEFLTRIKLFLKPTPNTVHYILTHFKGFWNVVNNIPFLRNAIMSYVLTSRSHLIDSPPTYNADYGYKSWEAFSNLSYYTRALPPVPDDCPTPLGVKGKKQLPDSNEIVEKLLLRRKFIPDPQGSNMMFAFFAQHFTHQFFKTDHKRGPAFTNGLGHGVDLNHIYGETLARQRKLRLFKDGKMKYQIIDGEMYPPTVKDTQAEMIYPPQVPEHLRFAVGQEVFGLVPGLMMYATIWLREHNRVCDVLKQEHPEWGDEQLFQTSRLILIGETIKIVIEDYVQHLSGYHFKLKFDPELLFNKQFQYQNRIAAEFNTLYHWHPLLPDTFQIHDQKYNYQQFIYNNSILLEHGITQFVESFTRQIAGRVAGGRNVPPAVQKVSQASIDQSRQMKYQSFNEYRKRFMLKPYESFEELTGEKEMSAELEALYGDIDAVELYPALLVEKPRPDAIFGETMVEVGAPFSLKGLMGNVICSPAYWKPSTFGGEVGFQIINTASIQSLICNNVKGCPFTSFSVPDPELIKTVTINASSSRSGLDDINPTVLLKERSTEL

[1] = tested on: PGE2 production in HCA-7 colon cancer cells; assay: PGE2 production assay in IL-1β-treated HCA-7 cells; assay type: cell-based; settings: Homo sapiens, HCA-7, read-out: PGE2 (%): % of inhibition of PGE2 levels in HCA-7 cells, 1 μM concentration; ± SD (n = 3); NR = no observed reduction

Row | inhibition at 5 µM (COX-2) [%] | Compound | inhibition at 1 µM [1] [%]
1 | -16.9 ± 10 | Cc1nc(Nc2ccc(Oc3ccccc3)cc2)sc1C(C)O (stereo not drawn) [5l] | 
2 |  | O=C(c1ccccc1)c1sc(Nc2ccc3c(c2)OCO3)nc1-c1ccccc1 [5a] | < 0
3 |  | COc1ccc(Nc2nc(-c3ccccc3)c(C(=O)c3ccccc3)s2)cc1 [5c] | < 0
